The record followed here is patent publication US10660965B2, “Methods of enhancing drug delivery and effectiveness of therapeutic agents” (priority 2010, dated 2020).

The test system of the test is Patient-derived low passage pancreatic tumor xenografts. The experiment in a line: Tumor regression in patient-derived pancreatic tumor xenografts. The format is in vivo, nude mice. Particulars: 11 xenograft cases; ABI 30 mg/kg i.v. daily x5, GEM 100 mg/kg i.p. twice a week for 4 weeks. The method, then: Eleven Patient-derived low passage pancreatic tumor xenografts were implanted (s.c) in nude mice. Mice with tumor size of ˜200 mm3 were randomized to four treatment groups (7-10 tumors/group) and treated with 1) Vehicle; 2) Abraxane® (ABI) 30 mg/kg once daily i.v for five consecutive days; 3) Gemcitabine (GEM) 100 mg/kg twice a week for 4 weeks i.p and 4) GEM+ABI in the above mentioned dose and frequency for 4 weeks. Tumor size was measured twice per week using a digital caliper. Number of tumors that regressed more than 50% of its initial size in each tumor xenografts were noted. Extent of stromal desmoplasia and endothelial cell content in control and treated xenografts were determined by Masson's Trichrome staining, IHC and qRTPCR.
A general note: A xenograft is tissue or cells of one species grown in another, often human tumour cells in immunodeficient mice.

As to `Nc1ccn([C@@H]2O[C@H](CO)[C@@H](O)C2(F)F)c(=O)n1` [GEM, gemcitabine], the “cases that produced >50% regression of tumor size” value is listed as 2 of 11.
